Laboratory results as given in ChEMBL document CHEMBL1201862, “PubChem BioAssay data set” (2004).
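Cells were grown in 96-well plates and exposed to each compound for 48 hours at five concentrations; endpoints were interpolated linearly between bracketing concentrations, or set to the highest concentration if not reached. GI50: concentration for 50% inhibition of growth.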 Active and inactive are the calls of the source. Rule as the data show it: active = GI50 up to about 1.1 µM and inactive = higher.

Key:
Assay in all cases: NCI-60 cell line screen, 48 h
MCF7 = system: MCF7
SNB-75 = system: SNB-75
HCC 2998 = system: HCC 2998
T47D = system: T47D
M14 = system: M14
SK-MEL-5 = system: SK-MEL-5
NCI-H460 = system: NCI-H460
HOP-92 = system: HOP-92
A498 = system: A498
NCI-H522 = system: NCI-H522
NCI/ADR-RES = system: NCI/ADR-RES
HCT-15 = system: HCT-15
TK-10 = system: TK-10
K562 = system: K562
SR = system: SR
SK-MEL-2 = system: SK-MEL-2
A549 = system: A549
UACC-257 = system: UACC-257
IGROV-1 = system: IGROV-1
SN12C = system: SN12C
RXF 393 = system: RXF 393
UACC-62 = system: UACC-62
HL-60 = system: HL-60
MDA-MB-231 = system: MDA-MB-231
U-251 = system: U-251
CAKI-1 = system: CAKI-1
MDA-MB-435 = system: MDA-MB-435
SF-539 = system: SF-539
NCI-H226 = system: NCI-H226
MOLT-4 = system: MOLT-4
Malme-3M = system: Malme-3M
SNB-19 = system: SNB-19
SW-620 = system: SW-620
BT-549 = system: BT-549
UO-31 = system: UO-31
PC-3 = system: PC-3
SF-295 = system: SF-295
OVCAR-5 = system: OVCAR-5
SF-268 = system: SF-268
CCRF-CEM = system: CCRF-CEM
LOX IMVI = system: LOX IMVI
KM12 = system: KM12
SK-MEL-28 = system: SK-MEL-28
EKVX = system: EKVX
RPMI-8226 = system: RPMI-8226
ACHN = system: ACHN
Hs-578T = system: Hs-578T
OVCAR-4 = system: OVCAR-4
DU-145 = system: DU-145
OVCAR-3 = system: OVCAR-3
OVCAR-8 = system: OVCAR-8
786-0 = system: 786-0
COLO 205 = system: COLO 205
HT-29 = system: HT-29
HOP-62 = system: HOP-62
SK-OV-3 = system: SK-OV-3
NCI-H23 = system: NCI-H23
MDA-N = system: MDA-N
HCT-116 = system: HCT-116

Measured: GI50

Cc1cc(C)c2c(c1)CC1(Cc3cc(C)c(C)cc3C1=O)C2=O (centres undefined)
> 100 µM: HCT-15
inactive: MCF7 > 100 µM | SNB-75 > 100 µM | HCC 2998 > 100 µM | T47D > 100 µM | M14 27.7 µM | SK-MEL-5 > 100 µM | NCI-H460 > 100 µM | HOP-92 60.5 µM | A498 > 100 µM | NCI-H522 > 100 µM | NCI/ADR-RES > 100 µM | TK-10 > 100 µM | K562 > 100 µM | SR 14.7 µM | SK-MEL-2 > 100 µM | A549 59.4 µM | UACC-257 > 100 µM | IGROV-1 90.4 µM | SN12C > 100 µM | RXF 393 44.9 µM | UACC-62 > 100 µM | HL-60 7.1 µM | MDA-MB-231 > 100 µM | U-251 > 100 µM | CAKI-1 > 100 µM | MDA-MB-435 3.82 µM | SF-539 46.2 µM | NCI-H226 > 100 µM | MOLT-4 > 100 µM | Malme-3M 4.75 µM | SNB-19 > 100 µM | SW-620 95.7 µM | BT-549 > 100 µM | UO-31 > 100 µM | PC-3 > 100 µM | SF-295 > 100 µM | OVCAR-5 48.1 µM | SF-268 > 100 µM | CCRF-CEM > 100 µM | LOX IMVI > 100 µM | KM12 > 100 µM | SK-MEL-28 > 100 µM | EKVX > 100 µM | RPMI-8226 > 100 µM | ACHN > 100 µM | Hs-578T 56.6 µM | OVCAR-4 77.8 µM | DU-145 > 100 µM | OVCAR-3 > 100 µM | OVCAR-8 > 100 µM | 786-0 71.9 µM | COLO 205 > 100 µM

O=C(Cc1ccccc1)NNc1nc(NNC(=O)c2ccncc2)nc(Nc2cccc(Cl)c2)n1
> 10 µM: HCT-15
inactive: MCF7 > 10 µM | SNB-75 > 10 µM | HCC 2998 > 10 µM | T47D > 10 µM | M14 > 10 µM | SK-MEL-5 > 10 µM | NCI-H460 > 10 µM | HOP-92 > 10 µM | HT-29 > 10 µM | NCI/ADR-RES > 10 µM | TK-10 > 10 µM | K562 > 10 µM | HOP-62 > 10 µM | SR > 10 µM | A549 > 10 µM | UACC-257 > 10 µM | IGROV-1 > 10 µM | SN12C > 10 µM | SK-OV-3 > 10 µM | UACC-62 > 10 µM | NCI-H23 > 10 µM | HL-60 > 10 µM | MDA-MB-231 > 10 µM | U-251 > 10 µM | CAKI-1 > 10 µM | SF-539 > 10 µM | MOLT-4 > 10 µM | Malme-3M > 10 µM | SW-620 > 10 µM | BT-549 > 10 µM | SF-268 > 10 µM | CCRF-CEM > 10 µM | MDA-N > 10 µM | LOX IMVI > 10 µM | KM12 > 10 µM | SK-MEL-28 > 10 µM | EKVX > 10 µM | RPMI-8226 > 10 µM | Hs-578T > 10 µM | OVCAR-4 > 10 µM | DU-145 > 10 µM | OVCAR-8 > 10 µM | 786-0 > 10 µM | COLO 205 > 10 µM

CCCCC(=O)Nc1ccc2c(C)cc(-c3ccc(-c4cc(-c5ccc(C)cc5)cc(-c5ccc(-c6cc(C)c7ccc(NC(=O)CCCC)nc7n6)cc5)n4)cc3)nc2n1
inactive: MCF7 > 100 µM | SNB-75 > 100 µM | HCC 2998 > 100 µM | T47D > 100 µM | M14 > 100 µM | SK-MEL-5 > 100 µM | NCI-H460 > 100 µM | HOP-92 78.9 µM | A498 > 100 µM | NCI-H522 > 100 µM | HCT-116 > 100 µM | NCI/ADR-RES > 100 µM | TK-10 > 100 µM | K562 > 100 µM | HOP-62 > 100 µM | SK-MEL-2 > 100 µM | A549 > 100 µM | UACC-257 > 100 µM | SN12C > 100 µM | SK-OV-3 > 100 µM | UACC-62 > 100 µM | NCI-H23 > 100 µM | MDA-MB-231 > 100 µM | U-251 > 100 µM | CAKI-1 > 100 µM | MDA-MB-435 > 100 µM | MOLT-4 > 100 µM | Malme-3M > 100 µM | SNB-19 > 100 µM | BT-549 > 100 µM | UO-31 > 100 µM | PC-3 > 100 µM | SF-295 > 100 µM | OVCAR-5 > 100 µM | SF-268 > 100 µM | CCRF-CEM > 100 µM | MDA-N > 100 µM | KM12 > 100 µM | SK-MEL-28 > 100 µM | EKVX > 100 µM | RPMI-8226 > 100 µM | ACHN > 100 µM | OVCAR-4 > 100 µM | DU-145 > 100 µM | OVCAR-3 > 100 µM | 786-0 > 100 µM | COLO 205 > 100 µM
> 100 µM: HCT-15

CC1(C(=O)O)CCC(C(=O)O)C(C)(C)O1 (centres undefined)
inactive: MCF7 > 100 µM | SNB-75 > 100 µM | HCC 2998 > 100 µM | T47D > 100 µM | M14 > 100 µM | SK-MEL-5 > 100 µM | NCI-H460 > 100 µM | HOP-92 > 100 µM | HT-29 > 100 µM | NCI-H522 > 100 µM | HCT-116 > 100 µM | NCI/ADR-RES > 100 µM | TK-10 > 100 µM | K562 > 100 µM | HOP-62 4.9 µM | SK-MEL-2 > 100 µM | A549 > 100 µM | UACC-257 > 100 µM | IGROV-1 > 100 µM | SN12C > 100 µM | SK-OV-3 > 100 µM | RXF 393 > 100 µM | UACC-62 > 100 µM | NCI-H23 > 100 µM | U-251 > 100 µM | CAKI-1 > 100 µM | MDA-MB-435 > 100 µM | SF-539 > 100 µM | NCI-H226 > 100 µM | MOLT-4 > 100 µM | Malme-3M > 100 µM | SNB-19 > 100 µM | SW-620 > 100 µM | BT-549 > 100 µM | UO-31 > 100 µM | PC-3 > 100 µM | SF-295 > 100 µM | OVCAR-5 > 100 µM | SF-268 > 100 µM | CCRF-CEM > 100 µM | MDA-N > 100 µM | LOX IMVI > 100 µM | KM12 > 100 µM | SK-MEL-28 > 100 µM | EKVX > 100 µM | RPMI-8226 > 100 µM | ACHN > 100 µM | Hs-578T > 100 µM | OVCAR-4 > 100 µM | DU-145 > 100 µM | OVCAR-3 29.2 µM | OVCAR-8 > 100 µM | COLO 205 > 100 µM
